In ChEMBL document CHEMBL1127973, “A comparative molecular field analysis derived model of the binding of taxol analogues to microtubules” (Bioorg Med Chem Lett, 1994):

Key:
Tubulin (Homo sapiens) [1] = molecular target: T1, Tubulin (Homo sapiens) (UniProt P68371+Q9H4B7+P0DPH7+P68366+Q13509+Q71U36+P04350+Q3ZCM7+P07437+P68363+Q9BQE3+Q6PEY2+Q13885+Q9BVA1+Q9BUF5); experiment: Binding affinity to microtubules, activity expressed as ID50 of compound/ID50 of paclitaxel; format: protein-complex assay
Tubulin (Homo sapiens) [2] = molecular target: T1, Tubulin (Homo sapiens); experiment: Binding affinity to microtubules, activity expressed as log 1/ID50 of compound/ID50 of paclitaxel; format: protein-complex assay

| SMILES | ID50 ratio (Tubulin (Homo sapiens) [1]) | Log 1/ratio (Tubulin (Homo sapiens) [2]) |
| --- | --- | --- |
| CC(=O)O[C@H]1C(=O)[C@@]2(C)[C@H]([C@H](OC(=O)c3ccccc3)[C@]3(O)C[C@H](OC(=O)[C@H](NC(=O)OC(C)(C)C)[C@@H](O)c4ccccc4)C(C)=C1C3(C)C)[C@]1(OC(C)=O)CO[C@@H]1C[C@@H]2O | 10 | -1 |
| CC(=O)O[C@H]1C(=O)[C@@]2(C)[C@H]([C@H](OC(=O)c3ccccc3)[C@]3(O)C[C@H](OC(=O)[C@H](O)[C@@H](NC(=O)c4ccc(C)cc4)c4ccccc4)C(C)=C1C3(C)C)[C@]1(OC(C)=O)CO[C@@H]1C[C@@H]2O | 1.6 | -0.204 |
| CC(=O)O[C@@]12CO[C@@H]1C[C@H](O)[C@@]1(C)C(=O)[C@H](O)C3=C(C)[C@@H](OC(=O)[C@@H](O)[C@H](NC(=O)OC(C)(C)C)c4ccccc4)C[C@@](O)([C@@H](OC(=O)c4ccccc4)[C@H]21)C3(C)C | 30 | -1.48 |
| CC(=O)O[C@H]1C[C@]2(C)[C@@H](O)C[C@H]3OC[C@@]3(OC(C)=O)[C@H]2[C@H](OC(=O)c2ccccc2)[C@@]2(O)C[C@H](OC(=O)[C@H](O)[C@@H](NC(=O)c3ccccc3)c3ccccc3)C(C)C1C2(C)C (stereo not given in full) | 3 | -0.477 |
| CC(=O)O[C@@]12CO[C@@H]1C[C@H](O)[C@@]1(C)C(=O)[C@H](O)C3=C(C)[C@@H](OC(=O)[C@@H](NC(=O)c4ccccc4)[C@H](O)c4ccccc4)C[C@@](O)([C@@H](OC(=O)c4ccccc4)[C@H]21)C3(C)C | 170 | -2.23 |
| CC(=O)O[C@@]12CO[C@@H]1C[C@H](O)[C@@]1(C)C(=O)[C@H](O)C3=C(C)[C@@H](OC(=O)[C@@H](O)[C@@H](N)c4ccccc4)C[C@@](O)([C@@H](OC(=O)c4ccccc4)[C@H]21)C3(C)C | 30 | -1.48 |
| CC(=O)O[C@H]1C(=O)[C@]2(C)[C@@H](OC(=O)[C@H](N)CCC(=O)O)C[C@H]3OC[C@@]3(OC(C)=O)[C@H]2[C@H](OC(=O)c2ccccc2)[C@]2(O)C[C@H](OC(=O)[C@H](O)[C@@H](NC(=O)c3ccccc3)c3ccccc3)C(C)=C1C2(C)C | 1 | 0 |
| CC(=O)O[C@@]12CO[C@@H]1C[C@H](O)[C@@]1(C)C(=O)[C@H](O)C3=C(C)[C@@H](OC(=O)[C@H](O)[C@H](NC(=O)c4ccccc4)c4ccccc4)C[C@@](O)([C@@H](OC(=O)c4ccccc4)[C@H]21)C3(C)C | 1.3 | -0.114 |
| CC(=O)O[C@H]1C(=O)[C@@]2(C)[C@H]([C@H](OC(=O)c3ccccc3)[C@]3(O)C[C@H](OC(=O)[C@H](O)[C@@H](N)c4ccccc4)C(C)=C1C3(C)C)[C@]1(OC(C)=O)CO[C@@H]1C[C@@H]2O | 44 | -1.64 |
| CC(=O)O[C@@]12CO[C@@H]1C[C@H](O)[C@@]1(C)C(=O)[C@H](O)C3=C(C)[C@@H](OC(=O)[C@H](O)[C@H](N)c4ccccc4)C[C@@](O)([C@@H](OC(=O)c4ccccc4)[C@H]21)C3(C)C | 30 | -1.48 |
| CC(=O)O[C@@]12CO[C@@H]1C[C@H](O)[C@@]1(C)C(=O)[C@H](O)C3=C(C)[C@@H](OC(=O)[C@H](O)[C@@H](NC(=O)CCCC(=O)O)c4ccccc4)C[C@@](O)([C@@H](OC(=O)c4ccccc4)[C@H]21)C3(C)C | 1 | 0 |
| CC(=O)O[C@@]12CO[C@@H]1C[C@H](O)[C@@]1(C)C(=O)[C@H](O)C3=C(C)[C@@H](OC(=O)[C@H](NC(=O)OC(C)(C)C)[C@@H](O)c4ccccc4)C[C@@](O)([C@@H](OC(=O)c4ccccc4)[C@H]21)C3(C)C | 10 | -1 |
| CC(=O)O[C@@]12CO[C@@H]1C[C@H](O)[C@@]1(C)C(=O)[C@H](O)C3=C(C)[C@@H](OC(=O)[C@@H](O)Cc4ccccc4)C[C@@](O)([C@@H](OC(=O)c4ccccc4)[C@H]21)C3(C)C | 3.5 | -0.544 |
| CC(=O)O[C@H]1C(=O)[C@@]2(C)[C@H]([C@H](OC(=O)c3ccccc3)[C@]3(O)C[C@H](OC(=O)[C@H](OC(C)=O)[C@@H](NC(=O)c4ccccc4)c4ccccc4)C(C)=C1C3(C)C)[C@]1(OC(C)=O)CO[C@@H]1C[C@@H]2O | 30 | -1.48 |
| CC(=O)O[C@H]1C(=O)[C@]2(C)[C@@H](OC(=O)[C@H](O)[C@@H](O)[C@H](O)CO)C[C@H]3OC[C@@]3(OC(C)=O)[C@H]2[C@H](OC(=O)c2ccccc2)[C@]2(O)C[C@H](OC(=O)[C@H](O)[C@@H](NC(=O)c3ccccc3)c3ccccc3)C(C)=C1C2(C)C | 0.4 | -0.398 |
| CC(=O)O[C@H]1C(=O)[C@@]2(C)[C@H]([C@H](OC(=O)c3ccccc3)[C@]3(O)C[C@H](OC(=O)[C@@H](NC(=O)OC(C)(C)C)[C@H](O)c4ccccc4)C(C)=C1C3(C)C)[C@]1(OC(C)=O)CO[C@@H]1C[C@@H]2O | 108 | -2.03 |
| CC(=O)O[C@@]12CO[C@@H]1C[C@H](O)[C@@]1(C)C(=O)[C@H](O)C3=C(C)[C@@H](OC(=O)[C@H](O)Cc4ccccc4)C[C@@](O)([C@@H](OC(=O)c4ccccc4)[C@H]21)C3(C)C | 4.5 | -0.653 |
| CC(=O)O[C@@H](C(=O)O[C@H]1C[C@@]2(O)[C@@H](OC(=O)c3ccccc3)[C@@H]3[C@]4(OC(C)=O)CO[C@@H]4C[C@H](O)[C@@]3(C)C(=O)[C@H](O)C(=C1C)C2(C)C)[C@@H](NC(=O)OC(C)(C)C)c1ccccc1 | 10 | -1.48 |
| CC(=O)O[C@@]12CO[C@@H]1C[C@H](OC(=O)[C@H](O)[C@@H](O)[C@H](O)CO)[C@@]1(C)C(=O)[C@H](O)C3=C(C)[C@@H](OC(=O)[C@H](O)[C@@H](NC(=O)c4ccccc4)c4ccccc4)C[C@@](O)([C@@H](OC(=O)c4ccccc4)[C@H]21)C3(C)C | 0.6 | 0.222 |
| CC(=O)O[C@@]12CO[C@@H]1C[C@H](OC(=O)[C@H](N)Cc1ccccc1)[C@@]1(C)C(=O)[C@H](O)C3=C(C)[C@@H](OC(=O)[C@H](O)[C@@H](NC(=O)OC(C)(C)C)c4ccccc4)C[C@@](O)([C@@H](OC(=O)c4ccccc4)[C@H]21)C3(C)C | 1 | 0 |
| CC(=O)O[C@H]1C(=O)[C@]2(C)[C@@H](OC(=O)c3c(F)c(F)c(N=[N+]=[N-])c(F)c3F)C[C@H]3OC[C@@]3(OC(C)=O)[C@H]2[C@H](OC(=O)c2ccccc2)[C@]2(O)C[C@H](OC(=O)[C@H](O)[C@@H](NC(=O)c3ccccc3)c3ccccc3)C(C)=C1C2(C)C | > 22.4 |  |

The remaining lines, values ahead:

| ID50 ratio (Tubulin (Homo sapiens) [1]) | Log 1/ratio (Tubulin (Homo sapiens) [2]) | SMILES |
| --- | --- | --- |
| 2 | -0.301 | CC(=O)O[C@H]1C(=O)[C@@]2(C)[C@H]([C@H](OC(=O)c3ccccc3)[C@]3(O)C[C@H](OC(=O)[C@H](O)[C@@H](NC(=O)c4cccc(Cl)c4)c4ccccc4)C(C)=C1C3(C)C)[C@]1(OC(C)=O)CO[C@@H]1C[C@@H]2O |
| 6 | -0.778 | CC(=O)O[C@H]1C(=O)[C@@]2(C)[C@H]([C@H](OC(=O)c3ccccc3)[C@]3(O)C[C@H](OC(=O)[C@H](O)[C@@H](NC(=O)c4ccc(C(F)(F)F)cc4)c4ccccc4)C(C)=C1C3(C)C)[C@]1(OC(C)=O)CO[C@@H]1C[C@@H]2O |
| 2.4 | -0.38 | CC(=O)O[C@H]1C(=O)[C@@]2(C)[C@H]([C@H](OC(=O)c3ccccc3)[C@]3(O)C[C@H](OC(=O)[C@H](O)[C@@H](NC(=O)c4ccccc4)c4ccc(C)cc4)C(C)=C1C3(C)C)[C@]1(OC(C)=O)CO[C@@H]1C[C@@H]2O |
| 0.8 | 0.0969 | CC(=O)O[C@H]1C(=O)[C@@]2(C)[C@H]([C@H](OC(=O)c3ccccc3)[C@]3(O)C[C@H](OC(=O)[C@H](O)[C@@H](NC(=O)c4ccccc4)c4ccccc4)C(C)=C1C3(C)C)[C@]1(OC(C)=O)CO[C@@H]1C[C@@H]2O (stereo in doubt; 14) |
| 0.7 | 0.155 | CC(=O)O[C@H]1C(=O)[C@@]2(C)[C@H]([C@H](OC(=O)c3ccccc3)[C@]3(O)C[C@H](OC(=O)[C@H](O)[C@@H](NC(=O)CC(C)(C)C)c4ccccc4)C(C)=C1C3(C)C)[C@]1(OC(C)=O)CO[C@@H]1C[C@@H]2O |
| 4.4 | -0.644 | CC(=O)O[C@H]1C(=O)[C@@]2(C)[C@H]([C@H](OC(=O)c3ccccc3)[C@]3(O)C[C@H](OC(=O)[C@H](O)[C@@H](NC(=O)c4ccccc4)c4cccc(Cl)c4)C(C)=C1C3(C)C)[C@]1(OC(C)=O)CO[C@@H]1C[C@@H]2O |
| 1.9 |  | CC(=O)O[C@H]1C(=O)[C@@]2(C)[C@H]([C@H](OC(=O)c3ccccc3)[C@]3(O)C[C@H](OC(=O)[C@H](O)[C@@H](NC(=O)c4ccccc4C)c4ccccc4)C(C)=C1C3(C)C)[C@]1(OC(C)=O)CO[C@@H]1C[C@@H]2O |
| 1.4 |  | CC(=O)O[C@H]1C(=O)[C@@]2(C)[C@H]([C@H](OC(=O)c3ccccc3)[C@]3(O)C[C@H](OC(=O)[C@H](O)[C@@H](NC(=O)c4cccc(N(C)C)c4)c4ccccc4)C(C)=C1C3(C)C)[C@]1(OC(C)=O)CO[C@@H]1C[C@@H]2O |
| 7.1 |  | CC(=O)O[C@H]1C(=O)[C@@]2(C)[C@H]([C@H](OC(=O)c3ccccc3)[C@]3(O)C[C@H](OC(=O)[C@H](O)[C@@H](NC(=O)c4ccccc4)c4ccc(Cl)c(Cl)c4)C(C)=C1C3(C)C)[C@]1(OC(C)=O)CO[C@@H]1C[C@@H]2O |
| 2.6 |  | CC(=O)O[C@H]1C(=O)[C@@]2(C)[C@H]([C@H](OC(=O)c3ccccc3)[C@]3(O)C[C@H](OC(=O)[C@H](O)[C@@H](NC(=O)C(C)(C)C)c4ccccc4)C(C)=C1C3(C)C)[C@]1(OC(C)=O)CO[C@@H]1C[C@@H]2O |
| 2.1 |  | CC(=O)O[C@H]1C(=O)[C@@]2(C)[C@H]([C@H](OC(=O)c3ccccc3)[C@]3(O)C[C@H](OC(=O)[C@H](O)[C@@H](NC(=O)c4ccc(Cl)c(Cl)c4)c4ccccc4)C(C)=C1C3(C)C)[C@]1(OC(C)=O)CO[C@@H]1C[C@@H]2O |
| 1.2 |  | CC(=O)O[C@H]1C(=O)[C@@]2(C)[C@H]([C@H](OC(=O)c3ccccc3)[C@]3(O)C[C@H](OC(=O)[C@H](O)[C@@H](NC(=O)CC(C)C)c4ccccc4)C(C)=C1C3(C)C)[C@]1(OC(C)=O)CO[C@@H]1C[C@@H]2O |
| 0.9 |  | CC(=O)O[C@H]1C(=O)[C@@]2(C)[C@H]([C@H](OC(=O)c3ccccc3)[C@]3(O)C[C@H](OC(=O)[C@H](O)[C@@H](NC(=O)c4ccccc4)c4ccco4)C(C)=C1C3(C)C)[C@]1(OC(C)=O)CO[C@@H]1C[C@@H]2O |
